The test system of assay [1] is Mus musculus. Kind of assay: Antiepileptic activity in CF1 mouse assessed as inhibition of subcutaneous pentylenetetrazole-induced seizures at 30 mg/kg, ip after 4 hrs. Type of assay: functional, organism-based. On the set-up: dose 30 mg/kg.
In assay [2] the test system is Mus musculus. Put plainly: Antiepileptic activity in CF1 mouse assessed as inhibition of maximal electroshock-induced seizures at 100 mg/kg, ip after 4 hrs. In kind it is functional, organism-based. More on the design: dose 100 mg/kg. (In general: Protection in the maximal electroshock model is a classic sign of anticonvulsant action.)
Assay [3] has as its system Mus musculus. Kind of assay: Antiepileptic activity in CF1 mouse assessed as inhibition of subcutaneous pentylenetetrazole-induced seizures at 30 mg/kg, ip after 0.5 hrs. In kind it is functional, organism-based. More on the design: dose 30 mg/kg.
The test system of assay [4] is Mus musculus. Kind of assay: Antiepileptic activity in ip dosed CF1 mouse assessed as inhibition of subcutaneous pentylenetetrazole-induced seizures. In kind it is functional.
In assay [5] the test system is Mus musculus. Put plainly: Neurotoxicity in CF1 mouse assessed as protection against motor impairment at 100 mg/kg, ip after 0.5 hrs by rotarod test. On the set-up: dose 100 mg/kg. In kind it is functional, organism-based.
Assay [6] deals with Mus musculus. Kind of assay: Neurotoxicity in CF1 mouse assessed as protection against motor impairment at 30 mg/kg, ip after 0.5 hrs by rotarod test. Type of assay: functional, organism-based. More on the design: dose 30 mg/kg.
The test system of assay [7] is Mus musculus. Kind of assay: Neurotoxicity in CF1 mouse assessed as protection against motor impairment at 300 mg/kg, ip after 0.5 hrs by rotarod test. Type of assay: functional, organism-based. On the set-up: dose 300 mg/kg.
Assay [8] concerns Mus musculus. Kind of assay: Antiepileptic activity in CF1 mouse assessed as inhibition of maximal electroshock-induced seizures at 100 mg/kg, ip after 0.5 hrs. Type of assay: functional, organism-based. More on the design: dose 100 mg/kg.
In assay [9] the test system is Mus musculus. Kind of assay: Neurotoxicity in CF1 mouse assessed as protection against motor impairment at 100 mg/kg, ip after 4 hrs by rotarod test. In kind it is functional, organism-based. On the set-up: dose 100 mg/kg.
The subject of assay [10] is Mus musculus. Put plainly: Antiepileptic activity in CF1 mouse assessed as inhibition of subcutaneous pentylenetetrazole-induced seizures at 100 mg/kg, ip after 4 hrs. In kind it is functional, organism-based. On the set-up: dose 100 mg/kg.
For assay [11], the system named is Mus musculus. Put plainly: Antiepileptic activity in CF1 mouse assessed as inhibition of maximal electroshock-induced seizures at 30 mg/kg, ip after 0.5 hrs. Type of assay: functional, organism-based. More on the design: dose 30 mg/kg.
Assay [12] deals with Mus musculus. Kind of assay: Antiepileptic activity in CF1 mouse assessed as inhibition of subcutaneous pentylenetetrazole-induced seizures at 100 mg/kg, ip after 0.5 hrs. More on the design: dose 100 mg/kg. In kind it is functional, organism-based.
The test system of assay [13] is Mus musculus. Put plainly: Neurotoxicity in CF1 mouse assessed as protection against motor impairment at 30 mg/kg, ip after 4 hrs by rotarod test. In kind it is functional, organism-based. On the set-up: dose 30 mg/kg. Background: In the rotarod test animals must keep their balance on a rotating rod.
The test system of assay [14] is Mus musculus. Put plainly: Antiepileptic activity in CF1 mouse assessed as inhibition of maximal electroshock-induced seizures at 300 mg/kg, ip after 4 hrs. Type of assay: functional, organism-based. More on the design: dose 300 mg/kg.
For assay [15], the system named is Mus musculus. Put plainly: Antiepileptic activity in CF1 mouse assessed as inhibition of maximal electroshock-induced seizures at 30 mg/kg, ip after 4 hrs. In kind it is functional, organism-based. On the set-up: dose 30 mg/kg.
The subject of assay [16] is Mus musculus. Kind of assay: Antiepileptic activity in CF1 mouse assessed as inhibition of subcutaneous pentylenetetrazole-induced seizures at 300 mg/kg, ip after 0.5 hrs. In kind it is functional, organism-based. More on the design: dose 300 mg/kg.
Assay [17] deals with Rattus norvegicus. Kind of assay: Anticonvulsant activity in ip dosed albino Sprague-Dawley rat assessed as protection against pilocarpine-induced seizure treated after 30 mins of pilcarpine challenge. Type of assay: functional. To be noted: 0.5 h.
For assay [18], the system named is Mus musculus. Kind of assay: Neurotoxicity in CF1 mouse assessed as protection against motor impairment at 300 mg/kg, ip after 4 hrs by rotarod test. Type of assay: functional, organism-based. More on the design: dose 300 mg/kg.
Assay [19] deals with Rattus norvegicus. Put plainly: Anticonvulsant activity in albino Sprague-Dawley rat assessed as protection against pilocarpine-induced seizure at 37.5 mg/kg, ip. Type of assay: functional, organism-based. More on the design: dose 37.5 mg/kg.
Assay [20] deals with Rattus norvegicus. Put plainly: Anticonvulsant activity in albino Sprague-Dawley rat assessed as protection against pilocarpine-induced seizure at 75 mg/kg, ip. Type of assay: functional, organism-based. More on the design: dose 75 mg/kg.
The species entered for assay [21] is Rattus norvegicus. Kind of assay: Ratio of ED50 for antiallodynic activity in rat assessed as protection against spinal nerve ligation-induced neuropathic pain to ED50 for antiepileptic activity in rat by maximal electroshock-induced seizures assay. In kind it is functional.
Assay [22] concerns Rattus norvegicus. Put plainly: Antiallodynic activity in ip dosed rat assessed as protection against spinal nerve ligation-induced neuropathic pain. Type of assay: functional.
Assay [23] relates to Mus musculus. Put plainly: Antiepileptic activity in CF1 mouse assessed as inhibition of maximal electroshock-induced seizures at 300 mg/kg, ip after 0.5 hrs. Type of assay: functional, organism-based. More on the design: dose 300 mg/kg.
Assay [24] deals with Mus musculus. Put plainly: Antiepileptic activity in CF1 mouse assessed as inhibition of subcutaneous pentylenetetrazole-induced seizures at 300 mg/kg, ip after 4 hrs. In kind it is functional, organism-based. On the set-up: dose 300 mg/kg.

The source made the active and inactive calls. No cut-off for these calls is given here.

This is an account of results in ChEMBL document CHEMBL1153701, “Synthesis and evaluation of antiallodynic and anticonvulsant activity of novel amide and urea derivatives of valproic acid analogues” (2009).

For orientation: ED50 means the midpoint of the dose-response relation.

Take `CCCCC(CC)C(N)=O` (configuration not stated): the result in [1], in assay [2], in assay [3], in assay [5], in assay [6] and in assay [9] was inactive. The result in [10], in assay [11], in assay [12], in [13], in assay [14] and in [15] was inactive. Also, the ED50 in [4] amounted to 103 mg/kg. Besides, the result in assay [7] and in [8] was Active.
Turning to `CCC(C)C(CC)C(=O)NC(N)=O` (configuration not stated) [CAPURIDE], the result in assay [1], in assay [2], in assay [3], in assay [9], in [10] and in assay [11] was inactive. Moreover, the result in [13] and in [15] was inactive. The outcome in assay [16], in assay [18], in assay [19], in assay [5], in assay [7] and in [8] was Active. Moreover, the result in assay [20], in [23], in assay [12], in assay [24] and in [14] was Active. The figures for the ED50 in assay [17] and in [22] were 23 mg/kg and 49 mg/kg, respectively. The ratio in assay [21] is 0.49.
